Assays:
[1] = cited from earlier work
[2] = Solubility and solution stability of CCG-211790; assay type: physicochemical; conditions: PEG/PG solution, aqueous with cosolvent or surfactant or cyclodextrin; ethanol (10%), propylene glycol (25%), PEG 400 (35%) and water (30%)
[3] = system: methicillin-resistant Staphylococcus aureus (MRSA); design: method as in PMID 33556134; conditions: cited from earlier work
[4] = In vitro dissolution in 0.5% SDS solution; assay type: physicochemical; conditions: 37 °C, 75 rpm
Protocol: The concentrations of CCG-211790 nanosuspensions were measured using an Agilent series 1100 HPLC system (Agilent Technologies, Santa Clara, CA, USA) equipped with a diode array detector. Sample separation was carried out with a Kinetex C18 column (75 mm × 3 mm, particle size 2.6 µm, Phenomenex, Torrance, CA, USA). The mobile phase was acetonitrile-water (50:50, v/v), flow rate was set to 0.5 mL/min, and column temperature to 35 °C. The injection volume was 30 µL. The absorption wavelength was set at 255 nm. CCG-211790 nanoparticles were dissolved in the mobile phase for HPLC analysis. Due to the fact that the analyte concentration was high and no other matrix was present in the sample, the HPLC method performed very well with excellent calibration linearity, reproducibility, and spike recovery. During sample analysis, ongoing quality controls were performed including a reagent blank, a duplicate sample, and spike recovery samples for every 10 samples analyzed.
The in vitro dissolution profiles of CCG-211790 bulk powder, NanoA and NanoB suspensions were examined. SDS is one of the most frequently used artificial surfactants in dissolution test to establish sink conditions for water-insoluble drugs. Therefore, a SDS solution (0.5% w/v in water) was used as the dissolution medium in this study. In each dissolution test, suspension or powder equivalent to 4 mg of CCG-211790 were directly dispersed in 500 mL dissolution medium under magnetic stirring at 75 rpm. The temperature of the dissolution medium was maintained at 37 ± 1 °C in a water bath. Sample aliquots (3 mL) were withdrawn at predetermined time points (5, 10, 20, 30, 45, and 60 min) and immediately replaced with 3 mL of fresh dissolution medium to readjust the volume to 500 mL. Undissolved particles were separated by centrifugation at 10,000× g for 5 min and the supernatant was collected for HPLC analysis. All experiments were run in triplicate.

Structure (SMILES) | aqueous solubility [1] | solubility in coconut oil [1] | solubility [2] [µg/mL] | biofilm formation of MRSA [3] | drug release ([4]; at 5 min) [%] | drug release ([4]; at 45 min) [%] | drug release ([4]; at 60 min) [%]
COc1ccc2c(c1)-c1nc(SCC(F)(F)F)n(C)c(=O)c1C(C)(C)C2 [CCG-211790, 9-methoxy-3,5,5-trimethyl-2-((2,2,2-trifluoroethyl)thio)-5,6-dihydrobenzo[h]quinazolin-4(3H)-one] | less than 50 ng/mL | up to 37 mg/mL | ≤ 1000 | inhibited |  |  | 
COc1ccc2c(c1)-c1nc(SCC(F)(F)F)n(C)c(=O)c1C(C)(C)C2 [CCG-211790 bulk powder] |  |  |  |  | 19.6 | 63.4 | 64.3

— publication PMC8540953, “Preparation and Pharmacokinetic Characterization of an Anti-Virulence Compound Nanosuspensions” (Pharmaceutics, 2021)
